Measurements: patent US8906904B2, “Alkoxy pyrazoles as soluble guanylate cyclase activators” (Boehringer Ingelheim International GmbH, priority 2012, dated 2014)
In brackets after ≈: the same amount, converted by molar mass.

Key:
[1] = biological target: T1, human soluble guanylate cyclase alpha 1 and beta 1 subunits (sGC) (Homo sapiens, UniProt Q02108+Q02153); assay: sGC cellular activator assay (cGMP, HTRF); format: cell-based; conditions: CHO cells stably expressing human sGC alpha 1/beta 1, preincubated with 40 microM ODQ; cGMP readout; assay run with and without 50% human serum, Table 2 does not say which
T1 construct: expressed in transfected cells; host or cells: Chinese hamster ovary (CHO) cells, stably transfected
T1 sequence (Q02108 1-690): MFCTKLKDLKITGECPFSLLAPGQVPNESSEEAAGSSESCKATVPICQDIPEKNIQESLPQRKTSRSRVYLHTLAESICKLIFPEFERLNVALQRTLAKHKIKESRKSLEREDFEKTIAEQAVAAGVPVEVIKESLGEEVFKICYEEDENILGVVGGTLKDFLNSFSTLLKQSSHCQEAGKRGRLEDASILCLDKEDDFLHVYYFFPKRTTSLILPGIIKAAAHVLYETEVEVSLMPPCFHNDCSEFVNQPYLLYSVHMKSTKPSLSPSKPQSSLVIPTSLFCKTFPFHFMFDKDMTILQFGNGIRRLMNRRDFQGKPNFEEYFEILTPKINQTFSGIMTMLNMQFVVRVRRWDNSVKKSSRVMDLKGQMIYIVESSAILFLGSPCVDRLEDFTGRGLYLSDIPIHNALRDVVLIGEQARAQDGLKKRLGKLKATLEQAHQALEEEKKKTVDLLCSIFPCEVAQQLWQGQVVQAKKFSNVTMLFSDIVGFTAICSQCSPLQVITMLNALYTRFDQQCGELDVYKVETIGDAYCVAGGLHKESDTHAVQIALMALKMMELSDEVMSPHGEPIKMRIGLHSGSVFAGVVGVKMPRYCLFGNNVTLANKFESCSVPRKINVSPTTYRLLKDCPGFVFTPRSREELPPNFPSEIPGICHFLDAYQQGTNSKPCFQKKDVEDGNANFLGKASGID
T1 sequence (Q02153 1-619): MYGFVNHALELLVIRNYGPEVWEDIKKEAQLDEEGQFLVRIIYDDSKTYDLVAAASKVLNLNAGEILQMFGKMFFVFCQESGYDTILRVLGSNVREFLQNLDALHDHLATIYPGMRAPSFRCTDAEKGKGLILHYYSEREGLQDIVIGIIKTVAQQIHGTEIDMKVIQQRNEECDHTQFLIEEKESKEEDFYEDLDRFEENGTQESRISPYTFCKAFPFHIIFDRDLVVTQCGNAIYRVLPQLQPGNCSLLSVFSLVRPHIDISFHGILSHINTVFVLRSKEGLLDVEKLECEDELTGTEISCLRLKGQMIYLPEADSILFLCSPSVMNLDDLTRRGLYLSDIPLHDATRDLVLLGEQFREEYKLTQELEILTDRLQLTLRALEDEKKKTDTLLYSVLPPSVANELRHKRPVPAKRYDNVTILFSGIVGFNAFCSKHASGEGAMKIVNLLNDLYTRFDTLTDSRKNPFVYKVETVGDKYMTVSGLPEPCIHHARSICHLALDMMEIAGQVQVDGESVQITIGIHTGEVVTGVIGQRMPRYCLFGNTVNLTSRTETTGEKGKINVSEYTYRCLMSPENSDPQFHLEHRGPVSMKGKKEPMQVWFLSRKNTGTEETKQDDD
Method in brief: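 First, CHO-sGC (human α1β1) cells get 1 h ODQ at 40 microM with IBMX and 0.1% BSA. Finally, cGMP is quantified by HTRF and EC50 computed.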

[2] = Assessment of solubility (McIlvaine buffers, 24 h shake, UPLC-UV); format: physicochemical; conditions: kinetic from dmso stock
Method in brief: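 Compounds from 10 mM DMSO stocks were shaken for 24 h at room temperature in McIlvaine buffers at pH 2.2, 4.5 and 6.8 (2.5% v/v DMSO final), then filtered. Filtrates were quantified by UPLC-UV at 254 nm against a 50:50 acetonitrile/water reference assumed fully dissolved, as a single determination.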

SMILES	EC50 [1] [nM]	solubility at 24 h ([2]; pH 2.2, aqueous buffer) [µg/mL]	solubility at 24 h ([2]; pH 4.5, aqueous buffer) [µg/mL]	solubility at 24 h ([2]; pH 6.8, aqueous buffer) [µg/mL]
COc1c(C(=O)O)cnn1-c1cccc(-c2cccc(C)c2OCc2ccc3c(c2C)CCN(CC2CC(F)(F)C2)C3)n1 [Compound 29]	3.5	110 (≈ 187 µM)	79 (≈ 134 µM)	78 (≈ 133 µM)
COc1c(C(=O)O)cnn1-c1cccc(-c2cc(C)cc(C)c2OCc2ccc3c(c2C)CCN(C2CCOCC2)C3)n1 [Compound 180]	28	100 (≈ 172 µM)	79 (≈ 136 µM)	76 (≈ 130 µM)
COc1c(C(=O)O)cnn1-c1cccc(-c2cc(C)cc(C)c2OCc2ccc3c(c2)CCN(C2CCOCC2)C3)n1 [Compound 181]	62	110 (≈ 193 µM)	87 (≈ 153 µM)	88 (≈ 155 µM)
COc1ccc(OCc2ccc3c(c2C)CCN(C2CCOCC2)C3)c(-c2cccc(-n3ncc(C(=O)O)c3OC)n2)c1 [Compound 182]	370	110 (≈ 188 µM)	81 (≈ 139 µM)	81 (≈ 139 µM)
COc1c(C(=O)O)cnn1-c1cccc(-c2cccc(C)c2OCc2ccc3c(c2C)CCN(C2CCOCC2)CC3)n1 [Compound 184]	12	89 (≈ 153 µM)	76 (≈ 130 µM)	76 (≈ 130 µM)
COc1c(C(=O)O)cnn1-c1cccc(-c2cccc(C)c2OCc2cc(C)c3c(c2)CCN(C2COC2)C3)n1 [Compound 186]	16	110 (≈ 203 µM)	83 (≈ 154 µM)	99 (≈ 183 µM)
COc1c(C(=O)O)cnn1-c1cccc(-c2cccc(C)c2OCc2ccc3c(c2)CCN(C[C@@H]2CCOC2)C3)n1 [Compound 188]	8.6	89 (≈ 160 µM)	77 (≈ 139 µM)	73 (≈ 132 µM)
CCOc1c(C(=O)O)cnn1-c1cccc(-c2cccc(C)c2OCc2ccc3c(c2C)CCN(C[C@@H]2CCOC2)C3)n1 [Compound 189]	12	89 (≈ 153 µM)	73 (≈ 125 µM)	75 (≈ 129 µM)
CCOc1c(C(=O)O)cnn1-c1cccc(-c2cccc(C)c2OCc2ccc3c(c2C)CCN(CC2(C)COC2)CC3)n1 [Compound 190]	23	100 (≈ 168 µM)	83 (≈ 139 µM)	87 (≈ 146 µM)
COc1c(C(=O)O)cnn1-c1cccc(-c2cccc(C)c2OCc2ccc3c(c2C)CCN(C[C@@H]2CCOC2)C3)n1 [Compound 191]	3.3	100 (≈ 176 µM)	85 (≈ 149 µM)	80 (≈ 141 µM)
CCOc1c(C(=O)O)cnn1-c1cccc(-c2cccc(C)c2OCc2ccc3c(c2C)CCN(C[C@H]2CCOC2)C3)n1 [Compound 193]	12	100 (≈ 172 µM)	80 (≈ 137 µM)	73 (≈ 125 µM)
CCOc1c(C(=O)O)cnn1-c1cccc(-c2cccc(C)c2OCc2ccc3c(c2C)CCN(C2CCOCC2)C3=O)n1 [Compound 194]	87	0.68 (≈ 1.14 µM)	2.5 (≈ 4.19 µM)	78 (≈ 131 µM)
CCOc1c(C(=O)O)cnn1-c1cccc(-c2cccc(C)c2OCc2cc(C)c3c(c2)CCN([C@@H]2CCCOC2)C3)n1 [Compound 195]	4.7	110 (≈ 189 µM)	83 (≈ 142 µM)	80 (≈ 137 µM)
CCOc1c(C(=O)O)cnn1-c1cccc(-c2cccc(C)c2OCc2ccc3c(c2C)CCN(C(C)COC)CC3)n1 (stereo not drawn) [Compound 196]	13	89 (≈ 152 µM)	77 (≈ 132 µM)	85 (≈ 145 µM)
CCOc1c(C(=O)O)cnn1-c1cccc(-c2cccc(C)c2OCc2cc(C)c3c(c2)CCN([C@H]2CCCOC2)C3)n1 [Compound 197]	19	110 (≈ 189 µM)	83 (≈ 142 µM)	79 (≈ 136 µM)
